pIC50: −log10 of the molar value. Several values for one entry are separate records, joined by “and”; a condition that tells them apart may be missing. Equal values may be shown once.
Test system: 126254-015-R-J1-PDC complex spheroid growth, % test/control
Test: Anticancer human tumor 126254-015-R-J1-PDC patient-derived soft tissue sarcoma cell line growth inhibition [Asc]
Conditions: for viability, T/C: stronger effect = lower value; active means viability on the fitted dose curve at most 10% of control; inactive means the rest
How it was run: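 Complex spheroids combining tumor cells with HUVEC endothelial cells and human MSCs, at 37 degrees C, 5% CO2; agents tested alone or combined, half-log dilutions from at or near clinical Cmax, or 10 microM if Cmax unknown.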

[1] = curve of first compound, second compound 0.03 µM
[2] = curve of first compound, second compound 0.0949 µM
[3] = curve of first compound, second compound 0.3 µM
[4] = curve of first compound, second compound 0.949 µM
[5] = curve of first compound, second compound 3 µM
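Further: spheroids exposed to compound for seven days.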
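Wherever viability, T/C is given: 100% = DMSO vehicle control wells.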

NC1CCC(NC2CC2c2ccccc2)CC1 (stereo not drawn) + Cc1c(S(C)(=O)=O)c(-c2cc(F)cc(N3CCN(c4ccc(NS(=O)(=O)c5ccc(NC(CCN6CCC(C(=O)OCCCP(=O)(O)O)CC6)CSc6ccccc6)c(S(=O)(=O)C(F)(F)F)c5)cc4)CC3)c2)c(-c2ccc(Cl)cc2)n1C(C)C
< 7.00: pIC50 (curve of first compound, second compound 0.1 µM) | pIC50 (curve of first compound, second compound 0.316 µM) | pIC50 (curve of first compound, second compound 1 µM) | pIC50 (curve of first compound, second compound 3.16 µM) | pIC50 (curve of first compound, second compound 10 µM)
inactive: viability, T/C (second compound 0.1 µM, first compound 0.000316 µM) 94.6% | viability, T/C (second compound 0.1 µM, first compound 0.001 µM) 88.8% | viability, T/C (second compound 0.1 µM, first compound 0.00316 µM) 76.7% | viability, T/C (second compound 0.1 µM, first compound 0.01 µM) 75.4% | viability, T/C (second compound 0.1 µM, first compound 0.0316 µM) 84% | viability, T/C (second compound 0.1 µM, first compound 0.1 µM) 77.6% | viability, T/C (second compound 0.316 µM, first compound 0.000316 µM) 74.4% | viability, T/C (second compound 0.316 µM, first compound 0.001 µM) 76.5% | viability, T/C (second compound 0.316 µM, first compound 0.00316 µM) 75.3% | viability, T/C (second compound 0.316 µM, first compound 0.01 µM) 70.1% | viability, T/C (second compound 0.316 µM, first compound 0.0316 µM) 66.5% | viability, T/C (second compound 0.316 µM, first compound 0.1 µM) 76.1% | viability, T/C (second compound 1 µM, first compound 0.000316 µM) 79% | viability, T/C (second compound 1 µM, first compound 0.001 µM) 81.2% | viability, T/C (second compound 1 µM, first compound 0.00316 µM) 73.1% | viability, T/C (second compound 1 µM, first compound 0.01 µM) 71.4% | viability, T/C (second compound 1 µM, first compound 0.0316 µM) 73.8% | viability, T/C (second compound 1 µM, first compound 0.1 µM) 60.3% | viability, T/C (second compound 3.16 µM, first compound 0.000316 µM) 81.5% | viability, T/C (second compound 3.16 µM, first compound 0.001 µM) 73.1% | viability, T/C (second compound 3.16 µM, first compound 0.00316 µM) 73.9% | viability, T/C (second compound 3.16 µM, first compound 0.01 µM) 71.2% | viability, T/C (second compound 3.16 µM, first compound 0.0316 µM) 62.3% | viability, T/C (second compound 3.16 µM, first compound 0.1 µM) 65% | viability, T/C (second compound 10 µM, first compound 0.000316 µM) 69.6% | viability, T/C (second compound 10 µM, first compound 0.001 µM) 69.1% | viability, T/C (second compound 10 µM, first compound 0.00316 µM) 70.4% | viability, T/C (second compound 10 µM, first compound 0.01 µM) 71.3% | viability, T/C (second compound 10 µM, first compound 0.0316 µM) 61.1% | viability, T/C (second compound 10 µM, first compound 0.1 µM) 58.2%

C=CC(=O)N1CCN(c2nc(=O)n(-c3c(C)ccnc3C(C)C)c3nc(-c4c(O)cccc4F)c(F)cc23)C(C)C1 (stereo not drawn)
inactive: viability, T/C (compound 0.0316 µM) 93.4% and 99.9% and 105% | viability, T/C (compound 0.1 µM) 106% and 97.6% and 110% | viability, T/C (compound 0.316 µM) 107% and 115% and 109% | viability, T/C (compound 1 µM) 102% and 111% and 112% | viability, T/C (compound 3.16 µM) 120% and 116% and 110% | viability, T/C (compound 10 µM) 88.8% and 91% and 102%
< 5.00: pIC50 (curve of compound)

Cc1nc(N2CCC3(CC2)COC(C)C3N)c(CO)nc1Sc1ccnc(N)c1Cl (stereo not drawn)
< 5.52 and 5.90 and 5.82: pIC50 (curve of compound)
inactive: viability, T/C (compound 0.00949 µM) 94.9% and 93.9% and 98.2% | viability, T/C (compound 0.03 µM) 103% and 83.5% and 93.7% | viability, T/C (compound 0.0949 µM) 86.2% and 84% and 84.9% | viability, T/C (compound 0.3 µM) 84.7% and 73.4% and 69.1% | viability, T/C (compound 0.949 µM) 76.9% and 51.7% and 54.3% | viability, T/C (compound 3 µM) 50.1% and 41.1% and 43.9%

C=CC(=O)N1CCN(c2nc(=O)n(-c3c(C)ccnc3C(C)C)c3nc(-c4c(O)cccc4F)c(F)cc23)C(C)C1 (stereo not drawn) + CCN1C(C(=O)NC23CCC(C(=O)O)(CC2)CC3)C(c2cccc(Cl)c2F)C2(C(=O)Nc3cc(Cl)ccc32)C12CCCCC2
< 5.00: pIC50 [1] | pIC50 [2] | pIC50 [3] | pIC50 [4] | pIC50 [5]
inactive: viability, T/C (second compound 0.03 µM, first compound 0.0316 µM) 94.8% | viability, T/C (second compound 0.03 µM, first compound 0.1 µM) 114% | viability, T/C (second compound 0.03 µM, first compound 0.316 µM) 106% | viability, T/C (second compound 0.03 µM, first compound 1 µM) 103% | viability, T/C (second compound 0.03 µM, first compound 3.16 µM) 114% | viability, T/C (second compound 0.03 µM, first compound 10 µM) 89% | viability, T/C (second compound 0.0949 µM, first compound 0.0316 µM) 110% | viability, T/C (second compound 0.0949 µM, first compound 0.1 µM) 92.6% | viability, T/C (second compound 0.0949 µM, first compound 0.316 µM) 98.1% | viability, T/C (second compound 0.0949 µM, first compound 1 µM) 104% | viability, T/C (second compound 0.0949 µM, first compound 3.16 µM) 111% | viability, T/C (second compound 0.0949 µM, first compound 10 µM) 88.5% | viability, T/C (second compound 0.3 µM, first compound 0.0316 µM) 98.4% | viability, T/C (second compound 0.3 µM, first compound 0.1 µM) 121% | viability, T/C (second compound 0.3 µM, first compound 0.316 µM) 106% | viability, T/C (second compound 0.3 µM, first compound 1 µM) 112% | viability, T/C (second compound 0.3 µM, first compound 3.16 µM) 105% | viability, T/C (second compound 0.3 µM, first compound 10 µM) 98.5% | viability, T/C (second compound 0.949 µM, first compound 0.0316 µM) 94.9% | viability, T/C (second compound 0.949 µM, first compound 0.1 µM) 109% | viability, T/C (second compound 0.949 µM, first compound 0.316 µM) 106% | viability, T/C (second compound 0.949 µM, first compound 1 µM) 120% | viability, T/C (second compound 0.949 µM, first compound 3.16 µM) 110% | viability, T/C (second compound 0.949 µM, first compound 10 µM) 84.2% | viability, T/C (second compound 3 µM, first compound 0.0316 µM) 109% | viability, T/C (second compound 3 µM, first compound 0.1 µM) 109% | viability, T/C (second compound 3 µM, first compound 0.316 µM) 106% | viability, T/C (second compound 3 µM, first compound 1 µM) 109% | viability, T/C (second compound 3 µM, first compound 3.16 µM) 109% | viability, T/C (second compound 3 µM, first compound 10 µM) 93.2%

CCN1CCN(Cc2ccc(Nc3ncc(F)c(-c4cc(F)c5nc(C)n(C(C)C)c5c4)n3)nc2)CC1
inactive: viability, T/C (compound 0.00316 µM) 99.2% and 102% (2×) | viability, T/C (compound 0.01 µM) 104% and 97% and 96.8% | viability, T/C (compound 0.0316 µM) 109% (2×) and 99% | viability, T/C (compound 0.1 µM) 94.1% and 103% and 115% | viability, T/C (compound 0.316 µM) 114% and 110% and 112% | viability, T/C (compound 1 µM) 110% and 102% and 112%
< 6.00: pIC50 (curve of compound)

CCN1C(C(=O)NC23CCC(C(=O)O)(CC2)CC3)C(c2cccc(Cl)c2F)C2(C(=O)Nc3cc(Cl)ccc32)C12CCCCC2 (stereo not drawn)
< 5.52: pIC50 (compound alone, run of 09/27/2022) | pIC50 (curve of compound)
inactive: viability, T/C (compound 0.00949 µM) 105% and 96.1% | viability, T/C (compound 0.03 µM) 95.4% [middle of 15 runs] | viability, T/C (compound 0.0949 µM) 96.8% [middle of 15 runs] | viability, T/C (compound 0.3 µM) 93.5% [middle of 15 runs] | viability, T/C (compound 0.949 µM) 96.8% [middle of 15 runs]

Cc1nc(N2CCC3(CC2)COC(C)C3N)c(CO)nc1Sc1ccnc(N)c1Cl (stereo not drawn) + CCN1C(C(=O)NC23CCC(C(=O)O)(CC2)CC3)C(c2cccc(Cl)c2F)C2(C(=O)Nc3cc(Cl)ccc32)C12CCCCC2
5.84: pIC50 [1]
6.12: pIC50 [2]
6.05: pIC50 [5]
6.11: pIC50 [4]
inactive: viability, T/C (second compound 0.03 µM, first compound 0.00949 µM) 98.5% | viability, T/C (second compound 0.03 µM, first compound 0.03 µM) 87.4% | viability, T/C (second compound 0.03 µM, first compound 0.0949 µM) 81.1% | viability, T/C (second compound 0.03 µM, first compound 0.3 µM) 64.8% | viability, T/C (second compound 0.03 µM, first compound 0.949 µM) 59.5% | viability, T/C (second compound 0.03 µM, first compound 3 µM) 38.8% | viability, T/C (second compound 0.0949 µM, first compound 0.00949 µM) 90.7% | viability, T/C (second compound 0.0949 µM, first compound 0.03 µM) 95.8% | viability, T/C (second compound 0.0949 µM, first compound 0.0949 µM) 86.3% | viability, T/C (second compound 0.0949 µM, first compound 0.3 µM) 63.2% | viability, T/C (second compound 0.0949 µM, first compound 0.949 µM) 47.8% | viability, T/C (second compound 0.0949 µM, first compound 3 µM) 43% | viability, T/C (second compound 0.3 µM, first compound 0.00949 µM) 88.7% | viability, T/C (second compound 0.3 µM, first compound 0.03 µM) 93.5% | viability, T/C (second compound 0.3 µM, first compound 0.0949 µM) 69.9% | viability, T/C (second compound 0.3 µM, first compound 0.3 µM) 60.7% | viability, T/C (second compound 0.3 µM, first compound 0.949 µM) 54.7% | viability, T/C (second compound 0.3 µM, first compound 3 µM) 42.5% | viability, T/C (second compound 0.949 µM, first compound 0.00949 µM) 91.3% | viability, T/C (second compound 0.949 µM, first compound 0.03 µM) 91.2% | viability, T/C (second compound 0.949 µM, first compound 0.0949 µM) 76.8% | viability, T/C (second compound 0.949 µM, first compound 0.3 µM) 59.1% | viability, T/C (second compound 0.949 µM, first compound 0.949 µM) 51.2% | viability, T/C (second compound 0.949 µM, first compound 3 µM) 38.4% | viability, T/C (second compound 3 µM, first compound 0.00949 µM) 98.2% | viability, T/C (second compound 3 µM, first compound 0.03 µM) 87.8% | viability, T/C (second compound 3 µM, first compound 0.0949 µM) 85% | viability, T/C (second compound 3 µM, first compound 0.3 µM) 63.8% | viability, T/C (second compound 3 µM, first compound 0.949 µM) 49.6% | viability, T/C (second compound 3 µM, first compound 3 µM) 39.2%
5.98: pIC50 [3]
